Where two headings read alike, the source gives them in different places. Each block holds one compound with its values, some of them ahead of it.
Tests used:
[1] = system: THP-1 cells; experiment: Cytokine release from human THP-1 cells (multiplex analysis of culture medium); type: cell-based; conditions: 24 hours, vs vehicle
Description: THP-1 cells, a human cell line derived from monocytes, were treated in vitro with vehicle, the P2Y6 receptor antagonist MRS 2578, or compound 5, singly or in combination. THP-1 cells were seeded in 24 well plates at a density of 4×10^5 cells/well in culture medium for 24 hours. Thereafter, vehicle, compound 5, or MRS 2578 (singly or in combination) were added to the cultures for 24 hours. Subsequently the culture medium was aspirated and subjected to multiplex cytokine analysis. Data are presented as means+/−sem. MRS 2578 has a molecular weight of about 472 and is also described using CAS number 711019-86-2.

[2] = system: PSAPP mice; experiment: Plaque load in cortex and hippocampus by amyloid beta immunostaining; type: in vivo, mouse; conditions: for immunoreactivity of β1-40 in cortex: FIG. 2A; for immunoreactivity of β1-40 in hippocampus: FIG. 2B
Description: PSB0474 was systemically administered to PSAPP mice via intraperitoneal injection for 2, 4 and 6 consecutive days. In one group, prior to evaluation and following to administration for 6 consecutive days, treatment was suspended for two weeks (6+2 weeks group). Brains were then fixed and plaque load was evaluated by immunostaining with the amyloid beta specific antibodies: β1-40 and β1-42. Representative images of plaque load in cortex and hippocampus from animals that received injections of PSB0474 according to the foregoing injection schedules are shown in FIGS. 1(A)-(D). […] Whereas, when administration of PSB0474 was stopped for 2 weeks following six consecutive days of treatment (denoted as the 6+2 weeks group), β1-40 staining rebounded; although to a level lower than observed in mice treated with saline as a vehicle control. […] FIGS. 2C-2F depict data obtained following administration of different dosages of PSB0474.
To generate these graphs showing plaque load, mice were euthanized, brain sections cut and antibodies directed against Aβ42 were used to disclose Aβ plaques. Images were acquired digitally and an algorithm was applied to threshold the image so that plaques were isolated from the background. The algorithm then calculated the percent area of the field of view occupied by the plaques.
Brain samples were collected for Abeta analysis with immunostaining. Brains samples were collected after transcardial perfusion with phosphate buffer and 4% paraformaldehyde. Floating brain sections (40 micron) were collected using a microtome. Immunostaining for […] and Aβ42 were performed according to previously established protocol. Images with DAB staining were collected with brightfield microscopy and analyzed with ImageJ Macro. All data analysis and statistics were performed in GraphPad Prism 6.0.
(§1) In this study, treatment of PSAPP mice commenced when the mice were pre-symptomatic. Specifically, treatment was initiated when the mice were approximately 3 months old. PSAPP mice were treated for 100 days with daily, intraperitoneal injections of 10 μg/kg of compound 5 or vehicle. Following treatment, mice were assessed in a fear conditioning task for memory formation. Subsequently, plaque burden in the mice was also evaluated. The data provided in Examples 16 and 17 is for 19 vehicle treated mice and 22 compound treated mice. The data provided for the vehicle-treated group is the average across those mice, and error bars depict the standard error (SEM). Similarly, the data provided for the compound-treated group is the average across those mice, and the error bars depict the SEM.
as §1, with “assessed for the following: concentration of circulating pro-inflammatory cytokines; amyloid beta load (e.g., plaque burden); and memory” for “assessed”, “formation.” for “formation. Subsequently, plaque burden in the mice was also evaluated.”, “Example 18” for “Examples 16 and 17”, “18” for “19”, “20” for “22”, “SEM. Mice were first evaluated in the fear conditioning task experiment. Subsequently, plasma was taken for multiplex cytokine analysis of circulating levels of cytokine in the plasma. Finally, plaque burden was assessed in the cortex and hippocampus of the mice.” for “SEM.”
In this study, treatment of PSAPP mice commenced after the mice were already symptomatic. Specifically, treatment was initiated when the mice were approximately 6 months old. […]

[3] = system: PSAPP mice; experiment: Tolerability of increased dose of PSB0474 in PSAPP mice; type: in vivo, mouse; conditions: 1000× increase in dose
[4] = molecular target: T1, P2Y6 receptor (Homo sapiens, UniProt Q15077); conditions: cited from earlier work
[5] = molecular target: T2, P2Y2 receptor (Homo sapiens, UniProt P41231); experiment: Ca2+ mobilizing effect (fluo-4) in 1321N1 cells expressing P2Y2 receptor; type: cell-based
T2 construct: expressed in transfected cells; host or cells: 1321N1 human astrocytoma cells
Description: (§2) Nucleoside disphosphate analogs of the foregoing compounds were tested for activation of P2Y6 receptor by measuring receptor induced Ca^2+ changes with the fluorescent Ca^2+ indicator fluo-4. 1321N1 human astrocytoma cell lines either expressing P2Y2, P2Y4 or P2Y6 receptors were plated into 24-well plates. Two days after plating, fluorometric measurements were made and responses of cells to a serial dilution of compound were determined. P2Y6 receptor mediated Ca^2+ fluorescent change was determined by normalized accumulation of fluorescent change of 3 timepoints after compound administration subtracted by value from ACSF control. Changes in fluorescent intensity were plotted corresponding to compound concentration in GraphPad. Dose-response curve and EC50 for each compound was estimated using nonlinear curve fit and Sigmoidal dose-response analysis. […]
(§3) Synthetic compounds were tested for activation of P2Y6 receptor by measuring receptor induced Ca^2+ changes with the fluorescent Ca^2+ indicator fluo-4, and results are shown in FIGS. 3(A)-(K). […] Two days after plating, fluorometric measurements were made and responses of cells to a serial dilution of compound were determined. P2Y6 receptor mediated Ca^2+ fluorescent change was determined by normalized accumulation of fluorescent change of 3 timepoints after compound administration subtracted by value from ACSF control. […]

[6] = molecular target: T3, P2Y4 receptor (Homo sapiens, UniProt P51582); experiment: Ca2+ mobilizing effect (fluo-4) in 1321N1 cells expressing P2Y4 receptor; type: cell-based
T3 construct: expressed in transfected cells; host or cells: 1321N1 human astrocytoma cells
Description: as §2, §3

[7] = molecular target: T1, P2Y6 receptor; experiment: Activation of P2Y6 receptor: receptor induced Ca2+ changes with fluo-4 in 1321N1 cells; type: cell-based; design: expressed in transfected cells; host or cells: 1321N1 human astrocytoma cells
Description: as §2, §3

T1 sequence (Q15077 whole entry): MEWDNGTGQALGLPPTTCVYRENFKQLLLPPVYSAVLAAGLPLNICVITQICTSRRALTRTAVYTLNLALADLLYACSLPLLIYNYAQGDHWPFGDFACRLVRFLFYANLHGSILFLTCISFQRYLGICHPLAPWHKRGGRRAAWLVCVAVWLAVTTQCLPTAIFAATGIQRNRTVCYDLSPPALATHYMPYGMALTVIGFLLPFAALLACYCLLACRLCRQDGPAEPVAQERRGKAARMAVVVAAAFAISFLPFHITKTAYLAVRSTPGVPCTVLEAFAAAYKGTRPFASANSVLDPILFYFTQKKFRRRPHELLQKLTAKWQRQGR
T3 sequence (P51582 whole entry): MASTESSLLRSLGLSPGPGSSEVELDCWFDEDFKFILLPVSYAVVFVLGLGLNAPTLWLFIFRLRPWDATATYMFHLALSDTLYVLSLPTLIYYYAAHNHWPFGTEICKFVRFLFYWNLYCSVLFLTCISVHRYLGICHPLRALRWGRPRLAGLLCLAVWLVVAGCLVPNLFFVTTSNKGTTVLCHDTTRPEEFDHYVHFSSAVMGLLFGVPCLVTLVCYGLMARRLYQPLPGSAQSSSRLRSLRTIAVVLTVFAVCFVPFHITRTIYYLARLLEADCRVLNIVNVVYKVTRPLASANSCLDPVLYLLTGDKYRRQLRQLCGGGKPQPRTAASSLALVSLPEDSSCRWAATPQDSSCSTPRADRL
T2 sequence (P41231 whole entry): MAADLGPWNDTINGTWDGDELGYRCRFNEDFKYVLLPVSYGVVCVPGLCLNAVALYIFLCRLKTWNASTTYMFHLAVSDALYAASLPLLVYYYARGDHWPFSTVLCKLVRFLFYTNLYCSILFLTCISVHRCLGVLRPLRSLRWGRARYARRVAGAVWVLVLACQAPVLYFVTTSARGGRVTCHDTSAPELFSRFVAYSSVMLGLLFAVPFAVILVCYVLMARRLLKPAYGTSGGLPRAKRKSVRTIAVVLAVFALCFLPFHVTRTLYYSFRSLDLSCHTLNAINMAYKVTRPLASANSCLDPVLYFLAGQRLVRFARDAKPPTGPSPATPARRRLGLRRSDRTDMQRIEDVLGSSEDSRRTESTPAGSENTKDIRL

SMILES: S=C=Nc1cccc(NC(=S)NCCCCNC(=S)Nc2cccc(N=C=S)c2)c1 [MRS 2578]
release of fractalkine into culture media ([1]; FIG. 18A): increased | release of PDGF-BB into culture media ([1]; FIG. 18B): increased | release of IL-7 into culture media ([1]; MRS 2578 alone, FIG. 18C, FIG. 19): increased

SMILES: O=C(Cn1c(=O)ccn([C@@H]2O[C@H](COP(=O)(O)OP(=O)(O)O)[C@@H](O)[C@H]2O)c1=O)c1ccccc1 [3-phenacyl-UDP, reference compound]
β1-40 staining ([2]; 6 consecutive days, then stopped for 2 weeks (6+2 weeks group), still lower than saline control): rebounded | effects on the efficacy endpoint (plaque load) ([2]; higher dose of 1 mg/kg, FIGS. 2C-2F): smaller effects | immunoreactivity of β1-40 in cortex ([2]; i.p. for 4 consecutive days): significantly decreased | immunoreactivity of β1-40 in hippocampus ([2]; i.p. for 4 consecutive days): significantly decreased | immunoreactivity of β1-40 in cortex ([2]; i.p. for 6 consecutive days): significantly decreased | immunoreactivity of β1-40 in hippocampus ([2]; i.p. for 6 consecutive days): significantly decreased | detrimental effects to the animal [3]: did not cause detrimental effects | EC50 ([4]; P2Y6 receptor agonist): 70 nM | selectivity for P2Y6 receptor [4]: > 500 fold

elevating Ca^2+ levels in P2Y2 receptor expressing cells [5]: not effective | elevating Ca^2+ levels in P2Y4 receptor expressing cells [6]: not effective | EC50 ([7]; 1321N1 human astrocytoma cells expressing P2Y6, fluo-4 Ca2+ fluorescence): 12 nM | ability to elevate Ca^2+ signals in P2Y6 receptor expressing cells ([7]; with addition of the P2Y6 antagonist MRS2578): attenuated
SMILES: O=c1ccn(C2OC(COP(=O)(O)OP(=O)(O)O)C(O)[C@@H]2O)c(=O)n1Cc1noc2ccccc12 (stereo partly shown)

From patent publication US20180085386A1, “URIDINE MONOPHOSPHATE AND TRIPHOSPHATE DERIVATIVES, COMPOSITIONS AND METHODS OF USE” (Tufts University, priority 2016, published 2018)
